According to patent US9062041B2 (Bayer Intellectual Property GmbH, priority 2011, dated 2015):

What was measured:
Format in all cases: cell-based
[1] = molecular target: EP4 subtype of the human PGE2 receptor (Homo sapiens, UniProt P35408); assay: cAMP antagonism test on the human EP4 receptor (HTRF cAMP detection); conditions: selectivity towards hEP4, IC50 measured by cAMP antagonism test
Method in brief: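 Competitive HTRF cAMP read-out (cAMP-d2 vs Eu-cryptate anti-cAMP antibody, 665/620 nm ratio) on lysed human EP4 cells. Compound (0.8 nM–16.5 μM) applied 20 min at RT before 60 min PGE2 challenge (3× solution 0.3 nM, IBMX present); 20 min lysis precedes reading.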

[2] = molecular target: EP2 subtype of the human PGE2 receptor (Homo sapiens, UniProt P43116); assay: cAMP antagonism test on the human EP2 receptor (HTRF cAMP detection); conditions: hEP2 receptor, read-out: Antagonism hEP2 IC50
Sequence of EP2 subtype of the human PGE2 receptor (P43116 whole entry): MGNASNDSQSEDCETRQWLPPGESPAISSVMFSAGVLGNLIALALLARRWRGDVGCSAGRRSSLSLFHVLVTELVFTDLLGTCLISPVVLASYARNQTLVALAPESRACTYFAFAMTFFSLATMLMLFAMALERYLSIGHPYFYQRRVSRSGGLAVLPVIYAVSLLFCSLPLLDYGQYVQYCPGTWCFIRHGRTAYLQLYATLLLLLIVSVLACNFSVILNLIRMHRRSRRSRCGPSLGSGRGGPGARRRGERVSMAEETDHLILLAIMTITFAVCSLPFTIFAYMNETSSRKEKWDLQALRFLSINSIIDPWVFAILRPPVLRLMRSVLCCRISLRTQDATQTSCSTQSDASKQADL
Method in brief: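 Read-out is a competitive HTRF for cAMP: lysate cAMP displaces cAMP-d2 from Eu cryptate-labelled antibody, and antagonism raises the 665/620 nm ratio. Compound (0.8 nM–16.5 μM) added to EP2 cells 20 min at RT before 60 min PGE2 challenge (3× stock 1.5 nM) with IBMX, followed by 20 min lysis.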

human PGD receptor = molecular target: T1, human PGD receptor (Homo sapiens, UniProt Q13258); assay: cAMP antagonism test on the human prostaglandin D receptor (HTRF cAMP detection); conditions: selectivity towards hDP, IC50 measured by cAMP antagonism test
T1 sequence (Q13258 1-359): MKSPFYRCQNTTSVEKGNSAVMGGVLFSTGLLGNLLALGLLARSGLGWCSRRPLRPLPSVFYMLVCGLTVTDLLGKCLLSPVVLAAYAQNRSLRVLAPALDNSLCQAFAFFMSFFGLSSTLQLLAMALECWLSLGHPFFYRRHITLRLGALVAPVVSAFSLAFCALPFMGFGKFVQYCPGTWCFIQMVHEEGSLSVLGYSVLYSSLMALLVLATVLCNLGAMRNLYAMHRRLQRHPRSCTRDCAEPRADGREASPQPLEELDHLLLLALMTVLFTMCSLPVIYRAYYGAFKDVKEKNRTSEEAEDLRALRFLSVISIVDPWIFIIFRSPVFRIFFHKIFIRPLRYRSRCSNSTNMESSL
Method in brief: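 HTRF competition read-out (665/620 nm ratio ×10000), where higher FRET means less cAMP, i.e. antagonism. Compounds (0.8 nM–16.5 μM) were preincubated 20 min at RT with cells and cAMP-d2, PGD2 (3× solution, 6 nM) in IBMX-containing PBS added for 30 min at RT, then cells lysed 20 min.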

Sequence of EP4 subtype of the human PGE2 receptor (P35408 whole entry): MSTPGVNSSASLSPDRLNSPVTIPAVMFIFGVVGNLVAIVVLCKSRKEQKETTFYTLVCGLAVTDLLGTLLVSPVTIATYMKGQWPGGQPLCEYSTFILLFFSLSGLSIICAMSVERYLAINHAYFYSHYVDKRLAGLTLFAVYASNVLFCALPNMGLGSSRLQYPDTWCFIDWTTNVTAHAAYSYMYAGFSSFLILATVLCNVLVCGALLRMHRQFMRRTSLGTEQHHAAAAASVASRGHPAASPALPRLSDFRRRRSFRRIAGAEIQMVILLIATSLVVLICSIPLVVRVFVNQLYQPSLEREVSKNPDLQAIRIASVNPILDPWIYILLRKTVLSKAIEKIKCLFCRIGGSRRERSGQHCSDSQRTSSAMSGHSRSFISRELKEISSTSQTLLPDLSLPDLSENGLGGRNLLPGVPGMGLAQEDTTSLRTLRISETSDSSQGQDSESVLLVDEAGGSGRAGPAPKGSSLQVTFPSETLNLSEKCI

Selectivity hEP2/hEP4 [1]	IC50 [2] [nM]	Selectivity hEP2/hDP (human PGD receptor)	SMILES
xxx (xxx > 100)	25.1	xxx (xxx > 100)	COCCNC(=O)c1cc2cn(CC3CCN(C(=O)c4ccc(Cl)c(C(F)(F)F)c4)CC3)nc2cc1C [Example 209, 2-({1-[4-chloro-3-(trifluoromethyl)benzoyl]piperidin-4-yl}methyl)-N-(2-methoxyethyl)-6-methyl-2H-indazol-5-carboxamide]
xx (xx: 10-100)	410	xx (xx: 10-100)	Cc1c(C(=O)NCC(C)OCC2CC2)ccc2nn(CC3CCN(C(=O)c4ccc(Cl)cc4)CC3)cc12 (racemic) [Example 102, (+/−)-2-{[1-(4-chlorobenzoyl)piperidin-4-yl]methyl}-N-[2-(cyclopropylmethoxy)propyl]-4-methyl-2H-indazol-5-carboxamide]
xxx (xxx > 100)	103	xxx (xxx > 100)	COCCNC(=O)c1ccc2nn(CC3CCN(C(=O)c4ccc(Oc5ncccn5)cc4)CC3)cc2c1C [Example 342, N-(2-methoxyethyl)-4-methyl-2-({1-[4-(pyrimidin-2-yloxy)benzoyl]piperidin-4-yl}methyl)-2H-indazol-5-carboxamide]
xxx (xxx > 100)	10	xxx (xxx > 100)	COCCNC(=O)c1cc2cn(CC3CN(C(=O)c4ccc(-c5ccc(F)cc5)cc4)C3)nc2cc1C [Example 204, 2-({1-[(4′-fluorobiphenyl-4-yl)carbonyl]azetidin-3-yl}methyl)-N-(2-methoxy-ethyl)-6-methyl-2H-indazol-5-carboxamide]
xxx (xxx > 100)	21.8	xxx (xxx > 100)	COCCNC(=O)c1ccc2nn(CC3CCN(C(=O)c4ccc(-c5cccnc5)c(C)c4)CC3)cc2c1C [Example 392, N-(2-methoxyethyl)-4-methyl-2-({1-[3-methyl-4-(3-pyridyl)benzoyl]piperidin-4-yl}methyl)-2H-indazol-5-carboxamide]
xxx (xxx > 100)	8.09	xxx (xxx > 100)	COCCNC(=O)c1ccc2nn(CC3CCN(C(=O)c4ccc(C5CC5)cc4)CC3)cc2c1OC(F)F [Example 228, 2-{[1-(4-cyclopropylbenzoyl)piperidin-4-yl]methyl}-4-(difluoromethoxy)-N-(2-methoxyethyl)-2H-indazol-5-carboxamide]
xxx (xxx > 100)	29.3	xxx (xxx > 100)	COc1ccc2c(c1)cc(C(=O)N1CC(Cn3cc4c(C)c(C(=O)NCC(F)(F)F)ccc4n3)C1)n2C [Example 168, 2-({1-[(5-methoxy-1-methyl-1H-indol-2-yl)carbonyl]azetidin-3-yl}methyl)-4-methyl-N-(2,2,2-trifluoroethyl)-2H-indazol-5-carboxamide]
xxx (xxx > 100)	30.4	xxx (xxx > 100)	Cc1c(C(=O)NCCS(C)(=O)=O)ccc2nn(CC3CCN(C(=O)c4ccc(Br)cc4)CC3)cc12 [Example 395, 2-{[1-(4-bromobenzoyl)piperidin-4-yl]methyl}-N-(2-mesylethyl)-4-methyl-2H-indazol-5-carboxamide]
xxx (xxx > 100)	14.9	xxx (xxx > 100)	COCCNC(=O)c1ccc2nn(CC3CCN(C(=O)c4ccc(Oc5ccccn5)cc4)CC3)cc2c1C [Example 346, N-(2-methoxyethyl)-4-methyl-2-({1-[4-(2-pyridyloxy)benzoyl]piperidin-4-yl}-methyl)-2H-indazol-5-carboxamide]
xxx (xxx > 100)	114	xxx (xxx > 100)	COCCNC(=O)c1ccc2nn(C[C@@H]3CCN(C(=O)c4ccc(Cl)cc4)C3)cc2c1C [Example 217, 2-{[(R)-1-(4-chlorobenzoyl)pyrrolidin-3-yl]methyl}-N-(2-methoxyethyl)-4-methyl-2H-indazol-5-carboxamide]
xxx (xxx > 100)	9.23	xxx (xxx > 100)	Cc1c(C(=O)NCCC#N)ccc2nn(CC3CCN(C(=O)c4ccc(Oc5ccc(C(F)(F)F)cc5)cc4)CC3)cc12 [Example 246, N-(2-cyanoethyl)-4-methyl-2-[(1-{4-[4-(trifluoromethyl)phenoxy]benzoyl}piperidin-4-yl)methyl]-2H-indazol-5-carboxamide]
xxx (xxx > 100)	7.88	xxx (xxx > 100)	COCCNC(=O)c1ccc2nn(CC3CCN(C(=O)c4ccc(Oc5nccc(C(F)(F)F)n5)cc4)CC3)cc2c1C [Example 347, N-(2-methoxyethyl)-4-methyl-2-{[1-(4-{[4-(trifluoromethyl)pyrimidin-2-yl]-oxy}benzoyl)piperidin-4-yl]methyl}-2H-indazol-5-carboxamide]
xx (xx: 10-100)	313	xx (xx: 10-100)	COCCNC(=O)c1ccc2nn(CC3CCN(C(=O)c4ccc(S(C)(=O)=O)cc4F)CC3)cc2c1C [Example 6, 2-{[1-(2-fluoro-4-mesylbenzoyl)piperidin-4-yl]methyl}-N-(2-methoxyethyl)-4-methyl-2H-indazol-5-carboxamide]
xx (xx: 10-100)	713	xx (xx: 10-100)	Cc1c(C(=O)NCC2COCCO2)ccc2nn(CC3CN(C(=O)c4ccc(Cl)cc4)C3)cc12 (single isomer, unassigned) [Example 142, (R or S)-2-{[1-(4-chlorobenzoyl)azetidin-3-yl]methyl}-N-(1,4-dioxan-2-ylmethyl)-4-methyl-2H-indazol-5-carboxamide]
xxx (xxx > 100)	41.3	xxx (xxx > 100)	COCCNC(=O)c1cc2cn(CC3CCN(C(=O)c4ccc(C(F)(F)F)cc4F)CC3)nc2cc1C [Example 206, 2-({1-[2-fluoro-4-(trifluoromethyl)benzoyl]piperidin-4-yl}methyl)-N-(2-methoxy-ethyl)-6-methyl-2H-indazol-5-carboxamide]
xxx (xxx > 100)	26.3	xxx (xxx > 100)	COc1ccc(-c2ccc(C(=O)N3CCC(Cn4cc5c(C)c(C(=O)NCC(F)(F)F)ccc5n4)CC3)cc2)c(C)c1 [Example 318, 2-({1-[(4′-methoxy-2′-methylbiphenyl-4-yl)carbonyl]piperidin-4-yl}methyl)-4-methyl-N-(2,2,2-trifluoroethyl)-2H-indazol-5-carboxamide]
xxx (xxx > 100)	4.91	xxx (xxx > 100)	COCCNC(=O)c1ccc2nn(CC3CCN(C(=O)c4ccc(Oc5ccc(F)cc5)cc4)CC3)cc2c1C [Example 3, 2-({1-[4-(4-fluorophenoxy)benzoyl]piperidin-4-yl}methyl)-N-(2-methoxyethyl)-4-methyl-2H-indazol-5-carboxamide]
xxx (xxx > 100)	131	xxx (xxx > 100)	Cc1c(C(=O)NCC(F)(F)F)ccc2nn(CC3CCN(C(=O)c4nc5ccccc5s4)CC3)cc12 [Example 302, 2-{[1-(benzothiazol-2-ylcarbonyl)piperidin-4-yl]methyl}-4-methyl-N-(2,2,2-trifluoroethyl)-2H-indazol-5-carboxamide]
